This note sets out measurements from patent US12612407B2, “Imidazo[2,1-f][1,2,4]triazin-4-amine derivatives as TLR7 agonist” (BEIGENE, LTD., priority 2020, dated 2026).

One may read the EC50 as the concentration needed to bring the measured effect to its halfway point. A low value points to an effect from little substance.

For this assay, the target named is T1, human TLR7 (Homo sapiens, UniProt Q9NYK1).
T1 construct: host or cells: HEK293 (HEK-Blue hTLR7)
T1 sequence (Q9NYK1 27-1049): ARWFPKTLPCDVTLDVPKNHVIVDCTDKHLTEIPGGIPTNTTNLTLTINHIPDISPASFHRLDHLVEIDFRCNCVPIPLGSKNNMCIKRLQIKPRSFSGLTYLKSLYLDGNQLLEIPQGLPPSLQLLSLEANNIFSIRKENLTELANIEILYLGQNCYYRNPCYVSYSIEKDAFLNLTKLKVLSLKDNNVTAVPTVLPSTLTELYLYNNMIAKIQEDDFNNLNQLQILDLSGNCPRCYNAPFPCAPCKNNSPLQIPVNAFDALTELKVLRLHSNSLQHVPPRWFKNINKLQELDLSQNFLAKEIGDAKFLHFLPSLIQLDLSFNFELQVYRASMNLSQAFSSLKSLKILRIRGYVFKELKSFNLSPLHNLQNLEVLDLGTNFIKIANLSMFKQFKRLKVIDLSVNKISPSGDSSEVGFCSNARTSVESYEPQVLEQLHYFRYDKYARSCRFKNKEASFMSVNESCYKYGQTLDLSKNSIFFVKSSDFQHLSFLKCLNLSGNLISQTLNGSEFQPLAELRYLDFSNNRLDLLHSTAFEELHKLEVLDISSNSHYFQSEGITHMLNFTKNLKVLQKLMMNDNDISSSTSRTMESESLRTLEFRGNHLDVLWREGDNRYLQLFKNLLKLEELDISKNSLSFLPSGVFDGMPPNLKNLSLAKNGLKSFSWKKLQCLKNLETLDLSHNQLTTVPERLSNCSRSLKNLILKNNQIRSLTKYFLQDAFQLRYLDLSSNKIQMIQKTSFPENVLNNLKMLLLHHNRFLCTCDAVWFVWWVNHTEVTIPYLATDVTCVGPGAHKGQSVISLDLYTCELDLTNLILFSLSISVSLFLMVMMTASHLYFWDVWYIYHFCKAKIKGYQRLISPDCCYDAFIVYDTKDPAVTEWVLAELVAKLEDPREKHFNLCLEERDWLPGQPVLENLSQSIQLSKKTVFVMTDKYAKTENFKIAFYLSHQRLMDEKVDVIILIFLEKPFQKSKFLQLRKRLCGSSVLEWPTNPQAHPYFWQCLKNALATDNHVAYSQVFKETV
As to the kind of experiment: HEK293-Blue hTLR7 Reporter Assay (QUANTI-BLUE, SEAP readout). The format is cell-based. The settings on record: HEK-Blue-hTLR7 cells, 24 hrs treatment, Table 1, B1-B232. A digest of the protocol:
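HEK-Blue-hTLR7 cells expressing NF-κB/AP-1-driven SEAP, 4×10^4 cells/well, treated 24 h at 37° C with increasing compound concentrations. Supernatant SEAP measured with Quanti-blue substrate (10-30 min, 37° C) at 620-655 nm; EC50 from sigmoidal dose-response fit.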
In general terms: In a reporter assay the amount or activity of a reporter protein is the signal.

Take `CNCC(C)Oc1nc(N)c2ncc(Cc3cnc(N4CCNCC4)c(C)c3)n2n1` (stereo not drawn) [Compound B206, 7-((5-methyl-6-(piperazin-1-yl)pyridin-3-yl)methyl)-2-((1-(methylamino)propan-2-yl)oxy)imidazo[2,1-f][1,2,4]triazin-4-amine]: the half-maximal effective concentration (EC50) is 5610 nM.
Turning to `CCCCOc1nc(N)c2ncc(Cc3cnc(N4CCNCC4)c(CC)c3)n2n1` [Compound B183, 2-butoxy-7-((5-ethyl-6-(piperazin-1-yl)pyridin-3-yl)methyl)imidazo[2,1-f][1,2,4]triazin-4-amine], the EC50 came out at 93 nM.
As for `CCCC(CC)Nc1nc(N)c2ncc(Cc3cnc(N4CCNCC4)c(C)c3)n2n1` (stereo not drawn) [Compound B223, N2-(hexan-3-yl)-7-((5-methyl-6-(piperazin-1-yl)pyridin-3-yl)methyl)imidazo[2,1-f][1,2,4]triazine-2,4-diamine], the EC50 worked out at 6 nM.
In turn, `CCC(C)Oc1nc(N)c2ncc(Cc3cnc(N4CCNCC4)c(C)c3)n2n1` (stereo not drawn) [Compound B112, 2-(sec-butoxy)-7-((5-methyl-6-(piperazin-1-yl)pyridin-3-yl)methyl)imidazo[2,1-f][1,2,4]triazin-4-amine] registered an EC50 of 37 nM.
For `CC[C@H](O)CCOc1nc(N)c2ncc(Cc3cnc(N4CCNCC4)c(C)c3)n2n1` [Compound B217, (S)-1-((4-amino-7-((5-methyl-6-(piperazin-1-yl)pyridin-3-yl)methyl)imidazo[2,1-f][1,2,4]triazin-2-yl)oxy)pentan-3-ol], the response was half-maximal at 2440 nM (EC50).
In turn, `CCCCOc1nc(N)c2ncc(Cc3cnc(N4CCN(C(=O)CN(C)C)[C@@H](C)C4)c(C)c3)n2n1` [Compound B179, (S)-1-(4-(5-((4-amino-2-butoxyimidazo[2,1-f][1,2,4]triazin-7-yl)methyl)-3-methylpyridin-2-yl)-2-methylpiperazin-1-yl)-2-(dimethylamino)ethan-1-one] gave a half-maximal effective concentration (EC50) of 38 nM.
Turning to `CCCCOc1nc(N)c2ncc(Cc3cnc(N4CCC5(CCNCC5)CC4)c(C)c3)n2n1` [Compound B131, 2-butoxy-7-((5-methyl-6-(3,9-diazaspiro[5.5]undecan-3-yl)pyridin-3-yl)methyl)imidazo[2,1-f][1,2,4]triazin-4-amine], the EC50 was 98 nM.
The figure for `CCCCOc1nc(N)c2ncc(Cc3cnc(N4CCN(C(=O)CN(C)C)CC4)c(C)c3)n2n1` [Compound B12, 1-(4-(5-((4-amino-2-butoxyimidazo[2,1-f][1,2,4]triazin-7-yl)methyl)-3-methylpyridin-2-yl)piperazin-1-yl)-2-(dimethylamino)ethan-1-one] is 44 nM; for `CCCCOc1nc(N)c2ncc(Cc3cnc(N4CCNCC4)c(OC)c3)n2n1` [Compound B11, 2-butoxy-7-((5-methoxy-6-(piperazin-1-yl)pyridin-3-yl)methyl)imidazo[2,1-f][1,2,4]triazin-4-amine] it is 247 nM.
As to `CCC(C)Oc1nc(N)c2ncc(Cc3cnc(N4CCN(C(=O)CN(C)C)CC4)c(C)c3)n2n1` (stereo not drawn) [Compound B155, 1-(4-(5-((4-amino-2-(sec-butoxy)imidazo[2,1-f][1,2,4]triazin-7-yl)methyl)-3-methylpyridin-2-yl)piperazin-1-yl)-2-(dimethylamino)ethan-1-one], the midpoint of the response, the EC50, lay at 8.3 nM.
On to `CCC[C@H](CC)Oc1nc(N)c2ncc(Cc3cnc(N4CCN(C(=O)CNC)CC4)c(C)c3)n2n1` [Compound B230, (S)-1-(4-(5-((4-amino-2-(hexan-3-yloxy)imidazo[2,1-f][1,2,4]triazin-7-yl)methyl)-3-methylpyridin-2-yl)piperazin-1-yl)-2-(methylamino)ethan-1-one], for which the EC50 was 4.8 nM.
In turn, `CCCCOc1nc(N)c2ncc(Cc3cnc(N4CCC(N(C)C)CC4)c(C)c3)n2n1` [Compound B78, 2-butoxy-7-((6-(4-(dimethylamino)piperidin-1-yl)-5-methylpyridin-3-yl)methyl)imidazo[2,1-f][1,2,4]triazin-4-amine] gave an EC50 of 47 nM.
With `CCCCOc1nc(N)c2ncc(Cc3cnc(N4CCC(CN(C)C)CC4)c(C)c3)n2n1` [Compound B59, 2-butoxy-7-((6-(4-((dimethylamino)methyl)piperidin-1-yl)-5-methylpyridin-3-yl)methyl)imidazo[2,1-f][1,2,4]triazin-4-amine], it took 20 nM to reach a half-maximal effect (EC50).
The compound `CCC(C)Oc1nc(N)c2ncc(Cc3cnc(N4CCN(C(=O)CNC)CC4)c(C)c3)n2n1` (stereo not drawn) [Compound B156, 1-(4-(5-((4-amino-2-(sec-butoxy)imidazo[2,1-f][1,2,4]triazin-7-yl)methyl)-3-methylpyridin-2-yl)piperazin-1-yl)-2-(methylamino)ethan-1-one] had an EC50 of 9.7 nM.
`Cc1cc(Cc2cnc3c(N)nc(OCC4CCOCC4)nn23)cnc1N1CCNCC1` [Compound B194, 7-((5-methyl-6-(piperazin-1-yl)pyridin-3-yl)methyl)-2-((tetrahydro-2H-pyran-4-yl)methoxy)imidazo[2,1-f][1,2,4]triazin-4-amine] returned an EC50 of 80 nM.
Compound `CCCCOc1nc(N)c2ncc(Cc3cnc(N4CCCCC4)c(C)c3)n2n1` [Compound B34, 2-butoxy-7-((5-methyl-6-(piperidin-1-yl)pyridin-3-yl)methyl)imidazo[2,1-f][1,2,4]triazin-4-amine] displayed an EC50 above 10000 nM.
Take `CCCCOc1nc(N)c2ncc(Cc3ccc(C4CCNCC4)cn3)n2n1` [Compound B15, 2-butoxy-7-((5-(piperidin-4-yl)pyridin-2-yl)methyl)imidazo[2,1-f][1,2,4]triazin-4-amine]: it took 509 nM to reach a half-maximal effect (EC50).
On to `COc1nc(N)c2ncc(Cc3cnc(N4CCNCC4)c(C)c3)n2n1` [Compound B62, 2-methoxy-7-((5-methyl-6-(piperazin-1-yl)pyridin-3-yl)methyl)imidazo[2,1-f][1,2,4]triazin-4-amine], for which the EC50 is above 10000 nM.
For `Cc1cc(Cc2cnc3c(N)nc(NCCC(C)C)nn23)cnc1N1CCNCC1` [Compound B85, N^2-isopentyl-7-((5-methyl-6-(piperazin-1-yl)pyridin-3-yl)methyl)imidazo[2,1-f][1,2,4]triazine-2,4-diamine], the response was half-maximal at 1360 nM (EC50).
The compound `CCCCOc1nc(N)c2ncc(Cc3cnc(N4CCN(C(=O)[C@@H](N)CC(C)C)CC4)c(C)c3)n2n1` [Compound B69, (S)-2-amino-1-(4-(5-((4-amino-2-butoxyimidazo[2,1-f][1,2,4]triazin-7-yl)methyl)-3-methylpyridin-2-yl)piperazin-1-yl)-4-methylpentan-1-one] came in with an EC50 of 313 nM.
The value for `CCCCOc1nc(N)c2ncc(Cc3cnc(N4CCNC[C@H]4C)c(C)c3)n2n1` [Compound B74, (R)-2-butoxy-7-((5-methyl-6-(2-methylpiperazin-1-yl)pyridin-3-yl)methyl)imidazo[2,1-f][1,2,4]triazin-4-amine] was 73 nM; that for `CCCCOc1nc(N)c2ncc(Cc3cnc(N4CCN[C@H](C)C4)c(C)c3)n2n1` [Compound B97, (R)-2-butoxy-7-((5-methyl-6-(3-methylpiperazin-1-yl)pyridin-3-yl)methyl)imidazo[2,1-f][1,2,4]triazin-4-amine] was 163 nM; that for `CCC[C@@H](CC)Oc1nc(N)c2ncc(Cc3cnc(N4CCNCC4)c(C)c3)n2n1` (single isomer, unassigned) [Compound B225] was 26 nM.
The value for `CCCCOc1nc(N)c2ncc(Cc3cnc(N4CCN(C(=O)[C@@H](N)Cc5ccccc5)CC4)c(C)c3)n2n1` [Compound B81, (S)-2-amino-1-(4-(5-((4-amino-2-butoxyimidazo[2,1-f][1,2,4]triazin-7-yl)methyl)-3-methylpyridin-2-yl)piperazin-1-yl)-3-phenylpropan-1-one] was 4440 nM; that for “N2-methyl-7-((5-methyl-6-(piperazin-1-yl)pyridin-3-yl)methyl)-N2-propylimidazo[2,1-f][1,2,4]triazine-2,4-diamine [Compound B84]” was 1000 nM; that for `CCCCOc1nc(N)c2ncc(Cc3cnc(N4CC5CCCCC5C4)c(C)c3)n2n1` (stereo not drawn) [Compound B38, 2-butoxy-7-((5-methyl-6-(octahydro-2H-isoindol-2-yl)pyridin-3-yl)methyl)imidazo[2,1-f][1,2,4]triazin-4-amine] was above 10000 nM.
For the compound `CCCC(C)Oc1nc(N)c2ncc(Cc3cnc(N4CCNCC4)c(C)c3)n2n1` (stereo not drawn) [Compound B65, 7-((5-methyl-6-(piperazin-1-yl)pyridin-3-yl)methyl)-2-(pentan-2-yloxy)imidazo[2,1-f][1,2,4]triazin-4-amine], the EC50 is 26 nM.
